System: C. elegans (N2 wild type)
Test: RNA interference in C. elegans by soaking L2 worms in HgRPS23 dsRNA (vitality/lethality)
Type: in vivo
Settings: 10 μM, positive control, after one day of soaking
Protocol: The effectiveness of HgRPS23 siRNA in silencing the worm's ribosomal protein gene was tested in C. elegans, following the previously published protocols (Alkharouf et al., 2007, Peng et al., 2016) with modifications. A T7 promoter sequence (5′-TAATACGACTCACTATAG-3′; SEQ ID NO: 3) was added to the 5′ ends of both the forward and reverse primer to amplify the 225 bp of HgRPS23 from pRD64 by PCR. The amplified PCR product was used to produce the double stranded (ds) in vitro transcript by the MEGAscript®T7 kit (Ambion/Invitrogen, Calsbad, Calif., USA).
The wt N2 strain of C. elegans was obtained from the CGC (Caenorhabditis Genetics Center) and maintained on NGM (Nematode Growth Medium) plates (60 mm petri dishes) at room temperature. The worms were grown and synchronized using protocols from the WormBase (www.wormbase.org). The L2 worms were soaked in 100 μl M9 buffer (22 mM KH2PO4, 4.7 mM NH4Cl, 43.6 mM Na2HPO4 and 2.1 mM NaCl) containing 50 mM octopamine (Sigma, St. Louis, Mo., USA) to increase pharyngeal pumping and 2 mg/ml HgRPS23 dsRNA. The negative control L2 worms were treated by soaking in M9 buffer containing 50 mM octopamine only. The positive control L2 worms were soaked in M9 buffer containing 50 mM octopamine and 10 μM cycloheximide (Sigma, St. Louis, Mo., USA) as a translation inhibitor. C. elegans worms were treated in the wells of a 96-well plate on a gentle shaker. […]

## C[C@@H]1C[C@@H]([C@H](O)CC2CC(=O)NC(=O)C2)C(=O)[C@@H](C)C1 [cycloheximide]
  vitality rate of N2 worms: approximately 20%

— patent US10947558B2, “Compositions and methods for inducing resistance to soybean cyst nematode via RNAi” (priority 2015, dated 2021)
